Measured values published in PubChem BioAssay AID743417 (Broad Institute, 2014).
Inconclusive results are not listed.

Test system: Clone20 osteoblast Shn3 3'UTR firefly luciferase, 24 h
Experiment: Shn3 3'UTR reporter inhibitors, dose response, cell-based, Clone20 osteoblasts, luminescence, dry powder, set 2 (AID 743417)

CC(=O)N1CCN(c2ccc(NC(=O)c3ccc([N+](=O)[O-])o3)cc2Cl)CC1
AC50: 1.08 µM

CC(C)(CNC(=O)c1ccc(Cl)c(S(=O)(=O)N2CCc3ccccc3C2)c1)N1CCOCC1
AC50: 10.5 µM

CC(C)Cn1c(N)c(C(=O)CSc2ccc3c(c2)OCCO3)c(=O)n(C)c1=O
AC50: 0.674 µM

O=C(CN1CCCC1c1cccs1)Nc1cc(S(=O)(=O)N2CCCCC2)ccc1Cl (stereo unspecified)
AC50: 14.4 µM

CC(C)N(CCC(=O)c1ccc2ccccc2c1)Cc1ccccc1
AC50: 4.22 µM

CN1CCN(c2ccc(-c3ccc4ccccc4n3)cc2)CC1
AC50: 2.73 µM

O=S(=O)(c1cc(F)ccc1F)N1CCN(c2ncnc3ccccc23)CC1
AC50: 1.85 µM

CCn1c(CNC(=O)c2cc(OC)c(OC)c(OC)c2)cc2cc(C)ccc21
AC50: 2.52 µM

COc1ccccc1-c1cc(C(F)(F)F)nc(S(C)(=O)=O)n1
AC50: 4.06 µM

CCCCN(c1nc2ccccc2nc1Cl)S(=O)(=O)c1ccc(C)cc1
AC50: 7.22 µM

O=C(CCN1CCc2ccccc2C(O)(c2ccccc2)C1)c1ccc2c(c1)OCCO2 (stereo unspecified)
AC50: 23.1 µM

CCOC(=O)c1oc2ccc(S(=O)(=O)n3nc(-c4ccccc4)cc3N)cc2c1C
AC50: 0.854 µM

O=C(c1cc2nc(-c3ccc(F)cc3)cc(C(F)(F)F)n2n1)N1CCCCC1c1cccnc1 (stereo unspecified)
AC50: 2.37 µM

CN(CC(=O)Nc1cccc(S(=O)(=O)N2CCOCC2)c1)CC(=O)Nc1ccc(Cl)c(C(F)(F)F)c1
AC50: 2.4 µM

CCC1CN2CCc3cc(OC)c(OC)cc3C2CC1CC1NCCc2c1[nH]c1ccc(O)cc21 (stereo unspecified)
AC50: < 0.26 µM

CN(c1ccccc1)c1ccc(/C=C/[N+](=O)[O-])cc1
AC50: 5.79 µM

COc1ccccc1NC(=O)Cc1nn(C)c(=O)c2ccccc12
AC50: 1.97 µM

Cn1cc([N+](=O)[O-])c(C(=O)Nc2cc(Oc3ccccc3)cc([N+](=O)[O-])c2)n1
AC50: 5.41 µM

COC(=O)C1=C(c2ccc(F)cc2OCc2ccccc2)C[C@@H]2CC[C@H]1N2C(=O)NC1Cc2ccccc2C1
AC50: 8 µM

COc1cc(NS(=O)(=O)c2ccc(C)cc2)c2ncccc2c1
AC50: 3.35 µM

Cc1nc(SCC(=O)Nc2nc3ccccc3s2)c(C#N)c(C)c1C
AC50: < 0.26 µM

CN(c1cccc(NC(=O)CN(c2ccc(C34CC5CC(CC(C5)C3)C4)cc2)S(C)(=O)=O)c1)S(C)(=O)=O
AC50: 7.58 µM

O=C(c1cc2sccc2n1Cc1ccccc1)N1CCN(c2nc3ccccc3s2)CC1
AC50: 1.09 µM

COc1ccccc1NS(=O)(=O)c1cc(NC(=O)c2ccc(Cl)nc2)ccc1Cl
AC50: 3.12 µM

CCCCNc1nc2c(c(=O)n(C)c(=O)n2C)n1Cc1cccc(OC)c1
AC50: 0.284 µM

C=CCOc1nc2c(c(=O)n(C)c(=O)n2C)n1Cc1ccc(Cl)cc1
AC50: 1.03 µM

Cc1c(CCOC(=O)C23CC4(C)CC(C)(CC(C)(C4)C2)C3)sc[n+]1CC(=O)c1ccccc1
AC50: 5.84 µM

OC1(c2ccc(OC(F)F)cc2)CSC(=Nc2cccnc2)N1C1CC1 (stereo unspecified)
AC50: 5.4 µM

CN(C)CCNC(=O)c1ccc(Cl)c2cc3ccccc3nc12
AC50: 9.85 µM

O=C1C=C(N2CCOCC2)c2ccccc2C1=O
AC50: 7.16 µM

CC(CC(=O)N1CCN(c2cccc(Cl)c2)CC1)S(=O)(=O)c1ccc2c(c1)NC(=O)CO2 (stereo unspecified)
AC50: 3.99 µM

COc1cc(N2C(=O)C=CC2=O)ccc1N1C(=O)C=CC1=O
AC50: 2.32 µM

Cc1c(CCOC(=O)CC23CC4CC(CC(C4)C2)C3)sc[n+]1CC(=O)c1ccc(Br)cc1
AC50: 12.9 µM

CCC(=O)NC(C)c1cc(Cl)c2cccnc2c1O (stereo unspecified)
AC50: 5.19 µM

O=C(Nc1nc(-c2ccccc2)cs1)C1CCCCN1S(=O)(=O)c1ccccc1 (stereo unspecified)
AC50: 5.14 µM

CC1CC(C)(O)CC(C(O)CC2CC(=O)NC(=O)C2)C1=O (stereo unspecified)
AC50: 0.339 µM

CCN(CC)c1ccc(/C=C2/SC(=O)N(C(C)C)C2=O)o1
AC50: 3.46 µM

COc1ccc(C(=O)Cn2c(C(=O)/C=C/c3ccccc3)nc3ccccc32)cc1
AC50: 4.47 µM

COc1ccc(NC(=O)/C(Cl)=C(/Cl)S(=O)Cc2ccccc2)cn1 (stereo unspecified)
AC50: < 0.26 µM

CSc1nnc(NC(=O)c2nc(S(=O)(=O)Cc3cccc(C)c3)ncc2Cl)s1
AC50: 4.03 µM

NC(CCc1ccccc1)c1csc(NC(=O)Nc2ccccc2Oc2ccccc2)n1 (stereo unspecified)
AC50: 7.18 µM

COc1ccc([C@H]2CC(=O)C=C(c3ccc(F)cc3OCc3ccccc3)C2)cc1OC
AC50: 7.36 µM

CCOc1ccccc1Nc1cc(C)nc2ccccc12
AC50: 8.14 µM

Cc1ccc(NC(=O)c2cc3ccccc3oc2=O)cc1S(=O)(=O)N(C)C
AC50: 1.29 µM

CC(=O)Nc1nc(C)c(-c2csc(Nc3cccc(C(C)=O)c3)n2)s1
AC50: 1.67 µM

COC(=O)[C@@]12CCCCN1[C@H](c1ccc(SC3CCCCC3)c(OC)c1)[C@@H]1C(=O)N(C)C(=O)[C@@H]12
AC50: 21.4 µM

Cn1cc([N+](=O)[O-])c(C(=O)Nc2sc3c(c2C#N)CCC3)n1
AC50: 0.88 µM

CN(Cc1nccn1C)C(=O)c1cc(COc2ccc3ncccc3c2)on1
AC50: 6.97 µM

CCn1c(/C=C/c2ccc([N+](=O)[O-])o2)nc2ccccc2c1=O
AC50: 4.51 µM

CCOc1cc(/C=C\[N+](=O)[O-])ccc1OCC(=O)Nc1ccccc1C
AC50: < 0.26 µM

C=CCNc1nc(-c2ccccn2)nnc1-c1ccccc1
AC50: 3.17 µM

COc1ccc(CNC(=O)c2cccc3c(-c4cccnc4)coc23)cc1OC
AC50: 0.9 µM

Cc1ccc(-c2nc(-c3ccccn3)no2)cc1
AC50: 1.96 µM

CCCCN1CC(COCc2ccccc2)Oc2cccc(Oc3cc(C)c(C)c(C)c3)c2S1(=O)=O (stereo unspecified)
AC50: 9.16 µM

Cc1cccc(-c2noc(CN(C(=O)C(c3ccccc3)c3ccccc3)C(C)C)n2)c1
AC50: 6.27 µM

NC(=O)c1cc(N2C(=O)C=CC2=O)ccc1Cl
AC50: 11.3 µM

CN(c1ccccc1)S(=O)(=O)c1ccc(NC(=O)c2nc(S(C)(=O)=O)ncc2Cl)cc1
AC50: 0.502 µM

COc1cc(C)c(C(=O)CC(=O)c2c(C)cc(OC)cc2C)c(C)c1
AC50: 7.4 µM

O=C1CCc2cccc(O)c2N1
AC50: 12.2 µM

CCOC(=O)C1CCN(c2cc3c(cc2NC(=O)c2ccccc2Br)n(C)c(=O)n3C)CC1
AC50: 21.3 µM

CN1CCN(C(c2ccc(Br)cc2)c2cc(Cl)c3cccnc3c2O)CC1 (stereo unspecified)
AC50: 3.61 µM

CCOC(=O)Oc1c(OC)cc(C(=O)O[C@@H]2C[C@@H]3CN4CCc5c([nH]c6cc(OC)ccc56)[C@H]4C[C@@H]3[C@H](C(=O)OC)[C@H]2OC)cc1OC
AC50: 10.7 µM

COc1cccc(-c2cc(N3CCN(C(=O)c4ccoc4)CC3)n3nc(-c4cccc(Cl)c4)cc3n2)c1
AC50: 6.22 µM

CCc1ccc(CN(C)C(=O)c2cc(COc3cccc4cnccc34)on2)cc1
AC50: 1.92 µM

Cc1cc([N+](=O)[O-])ccc1-c1ccc(C2Nc3ccccc3C(=O)N2O)o1 (stereo unspecified)
AC50: 3.32 µM

CC1=C(C(=O)OC2CCCCC2)C(c2cccnc2)n2nnnc2N1 (stereo unspecified)
AC50: 3.23 µM

CC(=O)Nc1ccc(NC(=O)c2nc(S(=O)(=O)Cc3ccccc3)ncc2Cl)cc1
AC50: 0.773 µM

COc1ccc(Nc2nc(N3CCCC3)c3ccccc3n2)cc1
AC50: 3.67 µM

COc1ccc(-c2nc(-c3ccccn3)no2)cc1
AC50: 1.92 µM

Cc1nn(-c2ccccc2)c(C)c1C(=O)OC(C)C(=O)NC1CCCCC1 (stereo unspecified)
AC50: 8.19 µM

CCc1ccc(NC(=O)C2CCN(S(=O)(=O)c3ccc4c(c3)NC(=O)C(C)S4)CC2)cc1 (stereo unspecified)
AC50: 7.08 µM

CCCC(c1nnnn1Cc1ccc(OC)cc1)N1CCN(c2ccccc2)CC1 (stereo unspecified)
AC50: 31.9 µM

N=C1S/C(=C\c2ccc(-c3cccc(Cl)c3)o2)C(=O)N1c1nccs1
AC50: 2.82 µM

CC(C)(C)n1nnnc1C(c1cccs1)N1CCCC2(CCCCC2)C1 (stereo unspecified)
AC50: 21.7 µM

S=C(Nc1ccccc1)Nc1ccc(OCc2ccc(Cl)cc2Cl)cc1
AC50: 0.405 µM

CC(=O)c1ccc(N2CCC(c3cc(-c4ccc(Cl)cc4)n[nH]3)CC2)c([N+](=O)[O-])c1
AC50: 5 µM

CCN(CC)Cc1c(O)ccc2c1O/C(=C\C=C\c1ccccc1)C2=O
AC50: 1.96 µM

Cc1ccc(S(=O)(=O)N2CCCCC2)cc1NC(=O)Cn1ncc(Cl)c(Cl)c1=O
AC50: 4.32 µM

COC(=O)c1ccc(COC(=O)c2[nH]c(C)c(C(C)=O)c2C)o1
AC50: 2.58 µM

CCCCCCn1c(NCC)nc2c1c(=O)n(C)c(=O)n2C
AC50: 0.834 µM

O=C(Nc1ccccc1)C1=C(c2ccccc2)S(=O)(=O)CCS1(=O)=O
AC50: 1.37 µM

O=C(Nc1ccc(N2CCOCC2)c(Cl)c1)c1ccc([N+](=O)[O-])o1
AC50: 6.23 µM

CCCS(=O)(=O)Nc1ccc(Nc2c3ccccc3nc3ccccc23)c(OC)c1
AC50: 3.39 µM

O=C(Cn1cc(C(=O)C2CC2)c2ccccc21)Nc1ccccc1Cl
AC50: 3.42 µM

CCN(CC)CCNc1cc(C)nc2c1C(=O)C(=O)C=C2N1CCCCC1
AC50: 6.61 µM

COc1ccccc1/C=C/CN1CCC(n2nccc2NC(=O)CCc2ccccc2)CC1
AC50: 1.91 µM

CC(=O)c1cn(Cc2ccccc2F)c2ccccc12
AC50: 2.96 µM

CC(=O)OCCCNc1cc(Sc2ccc(Cl)cc2)c2nonc2c1[N+](=O)[O-]
AC50: 1.14 µM

CCC(=O)N1c2ccc(S(=O)(=O)N3CCN(c4ccc([N+](=O)[O-])cc4)CC3)cc2CC1C (stereo unspecified)
AC50: 1.93 µM

CC(=O)N(CCc1ccccc1)c1ccc2c(c1)C1CC2CCN1C(=O)OCc1ccccc1 (stereo unspecified)
AC50: 14.3 µM

COc1cccc(OCCn2cc(C(C)=O)c3ccccc32)c1
AC50: 1.85 µM

Fc1ccc2[nH]c3c(N4CCN(c5ccccc5)CC4)ncnc3c2c1
AC50: 3.78 µM

OC1(c2cccc(C(F)(F)F)c2)CCN(c2ncnc3c2[nH]c2ccc(F)cc23)CC1
AC50: 1.87 µM

CC(C)(C)n1ncc2c(=O)n(Cc3cccc(Cn4cnc5c(cnn5C(C)(C)C)c4=O)c3F)cnc21
AC50: 1.09 µM

CN(C)CCNC(=O)c1cccc2nc3cccc(F)c3nc12
AC50: 13.7 µM

c1ccc(Nc2nc(NCC3CCCO3)c3ccccc3n2)cc1 (stereo unspecified)
AC50: 21.7 µM

CN(C)S(=O)(=O)c1ccc(Oc2ccc(S(=O)(=O)N(C)C)cc2)cc1
AC50: 3.04 µM

Oc1c(CN2CCN(c3ccc(F)cc3)CC2)cc(Cl)c2cccnc12
AC50: 1.32 µM

OC[C@@H]1CN(Cc2ccc(-c3ccccc3)cc2)C[C@H](n2cnc3c(NCc4ccc(F)cc4)ncnc32)O1
AC50: 1.58 µM

CCN(CC)S(=O)(=O)c1ccc(-c2ccc(S(=O)(=O)N(CC)CC)cc2)cc1
AC50: 3.81 µM

COc1ccc(-c2nsc3c(N4CCCCC4C)ncnc23)cc1 (stereo unspecified)
AC50: < 0.26 µM

COc1ccc(CNc2ncnc3sccc23)cc1
AC50: 1.66 µM

NS(=O)(=O)c1ccc(CCNCc2cc(Cl)ccc2OCc2ccccc2)cc1
AC50: 4.46 µM

COc1ccc(CC2NCC(O)C2OC(C)=O)cc1 (stereo unspecified)
AC50: < 0.26 µM

CCOC(=O)c1ccc(NC(=O)c2nc(S(=O)(=O)Cc3ccccc3)ncc2Cl)cc1
AC50: 0.572 µM

CN(C)c1ccc(C=c2c3cc([N+](=O)[O-])ccc3n3c2cc(-c2ccccc2)[n+]3C)cc1
AC50: 3.3 µM
